Among the data in patent US9539252B2, “Piperazine-substituted benzothiophene derivatives as antipsychotic agents” (OTSUKA PHARMACEUTICAL CO., LTD., priority 2011, dated 2017) are solubility values, retold here.

Molecules are shown by their SMILES.

The series in a line: Solubility in oil (sesame oil, benzyl benzoate), visual observation. The conditions noted are these: oil or lipid, thermodynamic from solid.

As a reminder, the solubility is the dissolved amount per volume that the medium holds. Higher therefore signals much dissolved substance.

Take `CCCCCCCCCCCC(=O)OCN1C(=O)CCc2ccc(OCCCCN3CCN(c4cccc5sccc45)CC3)cc21` [Example 21, dodecanoic acid 7-[4-(4-benzo[b]thiophen-4-ylpiperazin-1-yl)butoxy]-2-oxo-3,4-dihydro-2H-quinolin-1-ylmethyl ester]: the solubility by setting is: (benzyl benzoate) greater than 100 mg/mL; (sesame oil) greater than 100 mg/mL.

As to `CCCCCCCCCCCC(=O)OCn1c(=O)ccc2ccc(OCCCCN3CCN(c4cccc5sccc45)CC3)cc21` [Example 22, dodecanoic acid 7-[4-(4-benzo[b]thiophen-4-ylpiperazin-1-yl)butoxy]-2-oxo-2H-quinolin-1-ylmethyl ester], the solubility (benzyl benzoate) is greater than 100 mg/mL.

The molecule `CCCCCCCCCCCCCCCC(=O)OCN1C(=O)CCc2ccc(OCCCCN3CCN(c4cccc5sccc45)CC3)cc21` [Example 23, hexadecanoic acid 7-[4-(4-benzo[b]thiophen-4-ylpiperazin-1-yl)butoxy]-2-oxo-3,4-dihydro-2H-quinolin-1-ylmethyl ester] displayed a solubility (benzyl benzoate) greater than 100 mg/mL.

For the setting “benzyl benzoate”, `CCCCCCCC(=O)OCN1C(=O)CCc2ccc(OCCCCN3CCN(c4cccc5sccc45)CC3)cc21` [Example 24, octanoic acid 7-[4-(4-benzo[b]thiophen-4-ylpiperazin-1-yl)butoxy]-2-oxo-3,4-dihydro-2H-quinolin-1-ylmethyl ester] registered a solubility greater than 100 mg/mL.

`CCCCNC(=O)OCN1C(=O)CCc2ccc(OCCCCN3CCN(c4cccc5sccc45)CC3)cc21` [Example 27, N-butylcarbamic acid 7-[4-(4-benzo[b]thiophen-4-ylpiperazin-1-yl)butoxy]-2-oxo-3,4-dihydro-2H-quinolin-1-ylmethyl ester] came in with a solubility (benzyl benzoate) greater than 100 mg/mL.

As to `CCCCN(CCCC)C(=O)OCN1C(=O)CCc2ccc(OCCCCN3CCN(c4cccc5sccc45)CC3)cc21` [Example 28, N,N-dibutylcarbamic acid 7-[4-(4-benzo[b]thiophen-4-ylpiperazin-1-yl)butoxy]-2-oxo-3,4-dihydro-2H-quinolin-1-ylmethyl ester], the solubility (benzyl benzoate) was greater than 100 mg/mL and the solubility (sesame oil) is greater than 100 mg/mL.

Molecule `O=C(NCC1CCCCC1)OCN1C(=O)CCc2ccc(OCCCCN3CCN(c4cccc5sccc45)CC3)cc21` [Example 29, N-cyclohexylmethylcarbamic acid 7-[4-(4-benzo[b]thiophen-4-ylpiperazin-1-yl)butoxy]-2-oxo-3,4-dihydro-2H-quinolin-1-ylmethyl ester] displayed a solubility (benzyl benzoate) greater than 100 mg/mL.

For `CCCCCCCC(=O)OCn1c(=O)ccc2ccc(OCCCCN3CCN(c4cccc5sccc45)CC3)cc21` [Example 30, octanoic acid 7-[4-(4-benzo[b]thiophen-4-ylpiperazin-1-yl)butoxy]-2-oxo-2H-quinolin-1-ylmethyl ester], the solubility (benzyl benzoate) was greater than 100 mg/mL.

For `CCCCCCCCCCCCCCCCCCCC(=O)OCN1C(=O)CCc2ccc(OCCCCN3CCN(c4cccc5sccc45)CC3)cc21` [Example 31, icosanoic acid 7-[4-(4-benzo[b]thiophen-4-ylpiperazin-1-yl)butoxy]-2-oxo-3,4-dihydro-2H-quinolin-1-ylmethyl ester], the solubility (benzyl benzoate) was greater than 100 mg/mL.

For `O=C(OCn1c(=O)ccc2ccc(OCCCCN3CCN(c4cccc5sccc45)CC3)cc21)C1CCCCC1` [Example 32, cyclohexanecarboxylic acid 7-[4-(4-benzo[b]thiophen-4-ylpiperazin-1-yl)butoxy]-2-oxo-2H-quinolin-1-ylmethyl ester], the solubility (benzyl benzoate) is greater than 100 mg/mL.

As to `CCCCCCCC/C=C\CCCCCCCC(=O)OCN1C(=O)CCc2ccc(OCCCCN3CCN(c4cccc5sccc45)CC3)cc21` [Example 33, (Z)-octadec-9-enoic acid 7-[4-(4-benzo[b]thiophen-4-ylpiperazin-1-yl)butoxy]-2-oxo-3,4-dihydro-2H-quinolin-1-ylmethyl ester], the solubility (benzyl benzoate) is greater than 100 mg/mL.

`CCCCCCCCCCNC(=O)OCn1c(=O)ccc2ccc(OCCCCN3CCN(c4cccc5sccc45)CC3)cc21` [Example 34, N-decylcarbamic acid 7-[4-(4-benzo[b]thiophen-4-ylpiperazin-1-yl)butoxy]-2-oxo-2H-quinolin-1-ylmethyl ester] registered a solubility (benzyl benzoate) greater than 100 mg/mL.

On to `CCCCNC(=O)OCn1c(=O)ccc2ccc(OCCCCN3CCN(c4cccc5sccc45)CC3)cc21` [Example 35, N-butylcarbamic acid 7-[4-(4-benzo[b]thiophen-4-ylpiperazin-1-yl)butoxy]-2-oxo-2H-quinolin-1-ylmethyl ester], for which the solubility (benzyl benzoate) was greater than 100 mg/mL.

Take `CCCCN(C)C(=O)OCn1c(=O)ccc2ccc(OCCCCN3CCN(c4cccc5sccc45)CC3)cc21` [Example 36, N-butyl-N-methylcarbamic acid 7-[4-(4-benzo[b]thiophen-4-ylpiperazin-1-yl)butoxy]-2-oxo-2H-quinolin-1-ylmethyl ester]: the solubility (benzyl benzoate) was greater than 100 mg/mL.

Where the note is “benzyl benzoate”, `O=C(OCn1c(=O)ccc2ccc(OCCCCN3CCN(c4cccc5sccc45)CC3)cc21)C1CCCC1` [Example 37, cyclopentanecarboxylic acid 7-[4-(4-benzo[b]thiophen-4-ylpiperazin-1-yl)butoxy]-2-oxo-2H-quinolin-1-ylmethyl ester] registered a solubility greater than 100 mg/mL.

`CCCCCCCCCCCCCCCCCCNC(=O)OCn1c(=O)ccc2ccc(OCCCCN3CCN(c4cccc5sccc45)CC3)cc21` [Example 38, N-octadecylcarbamic acid 7-[4-(4-benzo[b]thiophen-4-ylpiperazin-3-yl)butoxy]-2-oxo-2H-quinolin-1-ylmethyl ester] displayed a solubility (benzyl benzoate) greater than 100 mg/mL.

`CCCCCCCC/C=C\CCCCCCCC(=O)OCn1c(=O)ccc2ccc(OCCCCN3CCN(c4cccc5sccc45)CC3)cc21` [Example 39, (Z)-octadec-9-enoic acid 7-[4-(4-benzo[b]thiophen-4-ylpiperazin-1-yl)butoxy]-2-oxo-2H-quinolin-1-ylmethyl ester] came in with a solubility (benzyl benzoate) greater than 100 mg/mL.

`CCCCCC(CCCCC)C(=O)OCN1C(=O)CCc2ccc(OCCCCN3CCN(c4cccc5sccc45)CC3)cc21` [Example 40, 2-pentylheptanoic acid 7-[4-(4-benzo[b]thiophen-4-ylpiperazin-1-yl)butoxy]-2-oxo-3,4-dihydro-2H-quinolin-1-ylmethyl ester] yielded a solubility (benzyl benzoate) greater than 100 mg/mL.

Under “benzyl benzoate”, `CCCCCCCCCCCCCCCCCCCC(=O)OCn1c(=O)ccc2ccc(OCCCCN3CCN(c4cccc5sccc45)CC3)cc21` [Example 41, icosanoic acid 7-[4-(4-benzo[b]thiophen-4-ylpiperazin-1-yl)butoxy]-2-oxo-2H-quinolin-1-ylmethyl ester] returned a solubility greater than 100 mg/mL.

In the case of `CCCCCCCCCCCCCCCC(=O)OCn1c(=O)ccc2ccc(OCCCCN3CCN(c4cccc5sccc45)CC3)cc21` [Example 42, hexadecanoic acid 7-[4-(4-benzo[b]thiophen-4-ylpiperazin-1-yl)butoxy]-2-oxo-2H-quinolin-1-ylmethyl ester], the solubility (benzyl benzoate) was greater than 100 mg/mL.

For the molecule `CCCCCCCCCCCCCCCNC(=O)OCn1c(=O)ccc2ccc(OCCCCN3CCN(c4cccc5sccc45)CC3)cc21` [Example 43, N-pentadecylcarbamic acid 7-[4-(4-benzo[b]thiophen-4-ylpiperazin-1-yl)butoxy]-2-oxo-2H-quinolin-1-ylmethyl ester], for the setting “benzyl benzoate”, the solubility was greater than 100 mg/mL.
